Source: patent publication US20080033006A1, “1,2,4-Triazolo[ 1,5-A] Pyridines as Gastric Acid Secretion Inhibitors” (Altana Pharma AG, priority 2004, published 2008)

Assays:
[1] = system: pentagastrin-stimulated acid secretion of the perfused rat stomach; assay: Secretion-inhibiting action on the perfused rat stomach (pentagastrin-stimulated acid secretion); format: in vivo; details: anesthetized CD rat, dose 1 μmol/kg i.d.; for inhibition in vivo at 1 µmol/kg: intraduodenal
Excerpt: In Table A which follows, the influence of the compounds according to the invention on the pentagastrin-stimulated acid secretion of the perfused rat stomach after intraduodenal administration in vivo is shown.
The abdomen of anesthetized rats (CD rat, female, 200-250 g; 1.5 g/kg i.m. urethane) was opened after tracheotomy by a median upper abdominal incision and a PVC catheter was fixed transorally in the esophagus and another via the pylorus such that the ends of the tubes just projected into the gastric lumen. The catheter leading from the pylorus led outward into the right abdominal wall through a side opening.
After thorough rinsing (about 50-100 ml), warm (37° C.) physiological NaCl solution was continuously passed through the stomach ([…], pH 6.8-6.9; Braun-Unita I). The pH (pH meter 632, glass electrode EA 147; φ=5 mm, Metrohm) and, by titration with a freshly prepared 0.01N NaOH solution to pH 7 (Dosimat 665 Metrohm), the secreted HCl were determined in the effluent in each case collected at an interval of 15 minutes.
The gastric secretion was stimulated by continuous infusion of 1 μg/kg (=1.65 ml/h) of i.v. pentagastrin (left femoral vein) about 30 min after the end of the operation (i.e. after determination of 2 preliminary fractions). The substances to be tested were administered intraduodenally in a 2.5 ml/kg liquid volume 60 min after the start of the continuous pentagastrin infusion.
The body temperature of the animals was kept at a constant 37.8-38° C. by infrared irradiation and heat pads (automatic, stepless control by means of a rectal temperature sensor).

SMILES	melting point	inhibition in vivo at 1 µmol/kg [1]	Inhibition of acid secretion [1]
CCc1cccc(C)c1CNc1cc(C(=O)OC)cn2nc(C)nc12 [Example 1, 8-(2-Ethyl-6-methylbenzylamino)-2-methyl[1,2,4]triazolo[1,5-a]pyridine-6-carboxylic acid methyl ester]	139.8 °C	–	–
CCc1cccc(C)c1CNc1cc(C(=O)O)cn2nc(C)nc12 [Example 2, 8-(2-Ethyl-6-methyl-benzylamino)-2-methyl[1,2,4]triazolo[1,5-a]pyridine-6-carboxylic acid]	264.1 °C	–	–
CCc1cccc(C)c1CNc1cc(C(=O)N(C)C)cn2nc(C)nc12 [Example 3, 8-(2-Ethyl-6-methylbenzylamino)-N,N,2-trimethyl[1,2,4]triazolo[1,5-a]pyridine-6-carboxamide]	–	> 25%	–
CCc1cccc(C)c1CNc1cc(C(=O)NCCOC)cn2nc(C)nc12 [Example 4, 8-(2-Ethyl-6-methylbenzylamino)-N-(2-methoxyethyl)-2-methyl[1,2,4]triazolo-[1,5a]-pyridine-6-carboxamide]	–	–	<25%
CCc1cccc(C)c1CNc1cc(CN)cn2nc(C)nc12 [Example 9, 8-(2-Ethyl-6-methylbenzylamino)-6-aminomethyl-2-methyl[1,2,4]triazolo-[1,5-a]pyridine]	–	< 25%	–

Further lines, with some results ahead:

melting point	SMILES	inhibition in vivo at 1 µmol/kg [1]	Inhibition of acid secretion [1]
98.7 °C	CCc1cccc(C)c1CNc1cc(COC)cn2nc(C)nc12 [Example 5, 8-(2-Ethyl-6-methylbenzylamino)-6-methoxymethyl-2-methyl[1,2,4]triazolo-[1,5-a]pyridine]	> 25%	–
180.3 °C	CCc1cccc(C)c1CNc1cc(CO)cn2nc(C)nc12 [Example 6, 8-(2-Ethyl-6-methylbenzylamino)-6-hydroxymethyl-2-methyl[1,2,4]triazolo-[1,5-a]pyridine]	< 25%	–
235.8 °C	CCc1cccc(C)c1CNc1cc(CN(C)C)cn2nc(C)nc12.Cl [Example 7, 8-(2-Ethyl-6-methylbenzylamino)-6-dimethylaminomethyl-2-methyl[1,2,4]triazolo[1,5-a]pyridine hydrochloride]	> 25%	–
179 °C	CCc1cccc(C)c1CNc1cc(CNC)cn2nc(C)nc12 [Example 8, 8-(2-Ethyl-6-methylbenzylamino)-6-methylaminomethyl-2-methyl[1,2,4]triazolo-[1,5-a]-pyridine]	> 25%	–
97.2 °C	CCc1cccc(C)c1CNc1cc(CN2CCOCC2)cn2nc(C)nc12 [Example 10, 8-(2-Ethyl-6-methylbenzylamino)-6-morpholinomethyl-2-methyl[1,2,4]triazolo-[1,5-a]-pyridine]	< 25%	–
158.5 °C	CCc1cccc(C)c1CNc1cc(Cn2ccnc2)cn2nc(C)nc12 [Example 11, 8-(2-Ethyl-6-methylbenzylamino)-6-(imidazol-1-ylmethyl)-2-methyl[1,2,4]triazolo-[1,5-a]-pyridine]	> 25%	–
120.2 °C	CCc1cccc(C)c1CNc1cc(COCCOC)cn2nc(C)nc12.Cl [Example 13, 8-(2-Ethyl-6-methylbenzylamino)-6-(2-methoxyethoxymethyl)-2-methyl-[1,2,4]triazolo[1,5-a]pyridine hydrochloride]	> 25%	–
